According to ChEMBL document CHEMBL1201862, “PubChem BioAssay data set” (2004):
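A five-concentration, 48-hour dose response in 96-well plates underlies each endpoint, interpolated linearly between surrounding concentrations. GI50 is the concentration that inhibits growth by half.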 Active and inactive are the calls of the source. No stated cut-off is given here; in the data, active = GI50 up to about 1.1 µM and inactive = higher.

Tests used:
Assay in all cases: DTP human tumour cell line panel, 48 h
ACHN = tested on: ACHN
MOLT-4 = tested on: MOLT-4
SK-MEL-5 = tested on: SK-MEL-5
MDA-MB-435 = tested on: MDA-MB-435
SF-268 = tested on: SF-268
Malme-3M = tested on: Malme-3M
SK-MEL-28 = tested on: SK-MEL-28
EKVX = tested on: EKVX
HOP-62 = tested on: HOP-62
SW-620 = tested on: SW-620
BT-549 = tested on: BT-549
RXF 393 = tested on: RXF 393
KM12 = tested on: KM12
NCI-H460 = tested on: NCI-H460
SR = tested on: SR
Hs-578T = tested on: Hs-578T
HT-29 = tested on: HT-29
A498 = tested on: A498
LOX IMVI = tested on: LOX IMVI
M14 = tested on: M14
SK-MEL-2 = tested on: SK-MEL-2
NCI-H522 = tested on: NCI-H522
NCI-H23 = tested on: NCI-H23
NCI-H226 = tested on: NCI-H226
T47D = tested on: T47D
OVCAR-3 = tested on: OVCAR-3
IGROV-1 = tested on: IGROV-1
U-251 = tested on: U-251
K562 = tested on: K562
OVCAR-5 = tested on: OVCAR-5
A549 = tested on: A549
UACC-62 = tested on: UACC-62
HCT-116 = tested on: HCT-116
UO-31 = tested on: UO-31
SN12C = tested on: SN12C
TK-10 = tested on: TK-10
HCT-15 = tested on: HCT-15
HOP-92 = tested on: HOP-92
CAKI-1 = tested on: CAKI-1
OVCAR-8 = tested on: OVCAR-8
786-0 = tested on: 786-0
SNB-19 = tested on: SNB-19
PC-3 = tested on: PC-3
MDA-N = tested on: MDA-N
HL-60 = tested on: HL-60
OVCAR-4 = tested on: OVCAR-4
NCI/ADR-RES = tested on: NCI/ADR-RES
UACC-257 = tested on: UACC-257
SF-295 = tested on: SF-295
MDA-MB-231 = tested on: MDA-MB-231
HCC 2998 = tested on: HCC 2998
MCF7 = tested on: MCF7
RPMI-8226 = tested on: RPMI-8226
DU-145 = tested on: DU-145
SNB-75 = tested on: SNB-75
CCRF-CEM = tested on: CCRF-CEM

In the case of Cc1ncc(COP(=O)(O)O)c(C)c1O, the GI50 (ACHN) was > 100 µM (inactive), the GI50 (MOLT-4) was > 100 µM (inactive) and the GI50 (SK-MEL-5) was > 100 µM (inactive). The GI50 (MDA-MB-435) was > 100 µM (inactive), the GI50 (SF-268) was > 100 µM (inactive) and the GI50 (Malme-3M) was > 100 µM (inactive). The GI50 (SK-MEL-28) was > 100 µM (inactive), the GI50 (EKVX) was > 100 µM (inactive) and the GI50 (HOP-62) was > 100 µM (inactive). For the same molecule, the GI50 (SW-620) was > 100 µM (inactive), the GI50 (BT-549) was > 100 µM (inactive) and the GI50 (RXF 393) was > 100 µM (inactive). The GI50 (KM12) was > 100 µM (inactive), the GI50 (NCI-H460) was > 100 µM (inactive) and the GI50 (SR) was > 100 µM (inactive). The GI50 (Hs-578T) was > 100 µM (inactive), the GI50 (HT-29) was > 100 µM (inactive) and the GI50 (A498) was > 100 µM (inactive). For the same molecule, the GI50 (LOX IMVI) was > 100 µM (inactive), the GI50 (M14) was > 100 µM (inactive) and the GI50 (SK-MEL-2) was > 100 µM (inactive). For the same molecule, the GI50 (NCI-H522) was > 100 µM (inactive), the GI50 (NCI-H23) was > 100 µM (inactive) and the GI50 (NCI-H226) was > 100 µM (inactive). The GI50 (T47D) was > 100 µM (inactive), the GI50 (OVCAR-3) was > 100 µM (inactive) and the GI50 (IGROV-1) was > 100 µM (inactive). For the same molecule, the GI50 (U-251) was > 100 µM (inactive), the GI50 (K562) was > 100 µM (inactive) and the GI50 (OVCAR-5) was > 100 µM (inactive). The GI50 (A549) was > 100 µM (inactive), the GI50 (UACC-62) was > 100 µM (inactive) and the GI50 (HCT-116) was > 100 µM (inactive). The GI50 (UO-31) was > 100 µM (inactive), the GI50 (SN12C) was > 100 µM (inactive) and the GI50 (TK-10) was > 100 µM (inactive). The GI50 (HCT-15) was greater than 100 µM, the GI50 (HOP-92) was > 100 µM (inactive) and the GI50 (CAKI-1) was > 100 µM (inactive). For the same molecule, the GI50 (OVCAR-8) was > 100 µM (inactive), the GI50 (786-0) was > 100 µM (inactive) and the GI50 (SNB-19) was > 100 µM (inactive). For the same molecule, the GI50 (PC-3) was > 100 µM (inactive), the GI50 (MDA-N) was > 100 µM (inactive) and the GI50 (HL-60) was > 100 µM (inactive). For the same molecule, the GI50 (OVCAR-4) was > 100 µM (inactive), the GI50 (NCI/ADR-RES) was > 100 µM (inactive) and the GI50 (UACC-257) was > 100 µM (inactive). For the same molecule, the GI50 (SF-295) was > 100 µM (inactive) and the GI50 (MDA-MB-231) was > 100 µM (inactive).

In the case of COc1ccc(C2c3c[nH]nc3CC3CCCCC32)cc1 (centres undefined), the GI50 (ACHN) was 19 µM (inactive), the GI50 (MOLT-4) was 17.7 µM (inactive) and the GI50 (SK-MEL-5) was 15.7 µM (inactive). For the same molecule, the GI50 (MDA-MB-435) was 19.4 µM (inactive), the GI50 (SF-268) was 18.2 µM (inactive) and the GI50 (Malme-3M) was 19.5 µM (inactive). For the same molecule, the GI50 (SK-MEL-28) was 18.3 µM (inactive), the GI50 (HCC 2998) was 20.3 µM (inactive) and the GI50 (MCF7) was 15.2 µM (inactive). For the same molecule, the GI50 (HOP-62) was 21.3 µM (inactive), the GI50 (SW-620) was 18.3 µM (inactive) and the GI50 (BT-549) was 16.6 µM (inactive). For the same molecule, the GI50 (NCI-H460) was 16.5 µM (inactive), the GI50 (RPMI-8226) was 19.8 µM (inactive) and the GI50 (SR) was 20.9 µM (inactive). For the same molecule, the GI50 (HT-29) was 23.4 µM (inactive), the GI50 (A498) was 11 µM (inactive) and the GI50 (LOX IMVI) was 17.9 µM (inactive). The GI50 (M14) was 17.6 µM (inactive), the GI50 (SK-MEL-2) was 17.9 µM (inactive) and the GI50 (NCI-H522) was 19.8 µM (inactive). For the same molecule, the GI50 (NCI-H23) was 17.4 µM (inactive), the GI50 (NCI-H226) was 17.4 µM (inactive) and the GI50 (DU-145) was 13.4 µM (inactive). For the same molecule, the GI50 (T47D) was 3.99 µM (inactive), the GI50 (OVCAR-3) was 15.5 µM (inactive) and the GI50 (SNB-75) was 13.1 µM (inactive). For the same molecule, the GI50 (IGROV-1) was 12.7 µM (inactive), the GI50 (U-251) was 15.5 µM (inactive) and the GI50 (K562) was 22.2 µM (inactive). For the same molecule, the GI50 (OVCAR-5) was 20.5 µM (inactive), the GI50 (A549) was 14.5 µM (inactive) and the GI50 (UACC-62) was 11.9 µM (inactive). For the same molecule, the GI50 (HCT-116) was 17.8 µM (inactive), the GI50 (UO-31) was 14 µM (inactive) and the GI50 (SN12C) was 16.9 µM (inactive). For the same molecule, the GI50 (TK-10) was 19.7 µM (inactive), the GI50 (HCT-15) was 15.7 µM and the GI50 (CCRF-CEM) was 21.9 µM (inactive). For the same molecule, the GI50 (CAKI-1) was 14.2 µM (inactive), the GI50 (OVCAR-8) was 17.3 µM (inactive) and the GI50 (786-0) was 18.6 µM (inactive). The GI50 (SNB-19) was 18.2 µM (inactive), the GI50 (PC-3) was 14.8 µM (inactive) and the GI50 (MDA-N) was 14.4 µM (inactive). For the same molecule, the GI50 (HL-60) was 23.4 µM (inactive), the GI50 (OVCAR-4) was 16.7 µM (inactive) and the GI50 (UACC-257) was 22.4 µM (inactive). For the same molecule, the GI50 (MDA-MB-231) was 14 µM (inactive).
